Results taken from ChEMBL document CHEMBL3585330, “Anticancer activity of koningic acid and semisynthetic derivatives” (Bioorg Med Chem, 2015).
Calls of active or inactive are those of the source. No cut-off for these calls is given here.

Columns and labels:
MDA-MB-231 [1] = test: Cytotoxicity against human MDA-MB-231 cells incubated for 72 hrs under hypoxic conditions by MTS assay; type: functional, cell-based
SK-OV-3 = test: Antiproliferative activity against human SKOV3 cells assessed as inhibition of cell proliferation incubated for 72 hrs by conventional ATP quantification method; type: functional, cell-based; details: SK-OV-3, 72 h
HOP-62 = test: Antiproliferative activity against human HOP62 cells assessed as inhibition of cell proliferation incubated for 72 hrs by conventional ATP quantification method; type: functional, cell-based; details: HOP-62, 72 h
OVCAR-3 = test: Antiproliferative activity against human OVCAR3 cells assessed as inhibition of cell proliferation incubated for 72 hrs by conventional ATP quantification method; type: functional, cell-based; details: OVCAR-3, 72 h
HT-29 [2] = test: Cytotoxicity against human HT-29 cells incubated for 72 hrs under hypoxic conditions by MTS assay; type: functional, cell-based
NCI-H460 = test: Antiproliferative activity against human NCI-H460 cells assessed as inhibition of cell proliferation incubated for 72 hrs by conventional ATP quantification method; type: functional, cell-based; details: NCI-H460, 72 h
KM12 = test: Antiproliferative activity against human KM12 cells assessed as inhibition of cell proliferation incubated for 72 hrs by conventional ATP quantification method; type: functional, cell-based; details: KM12, 72 h
A549 [3] = test: (§1) Antiproliferative activity against human A549 cells assessed as inhibition of cell proliferation incubated for 72 hrs by conventional ATP quantification method; type: functional, cell-based; details: A549, 72 h
A-375 [4] = test: Antiproliferative activity against human A375 cells assessed as inhibition of cell proliferation incubated for 72 hrs by conventional ATP quantification method; type: functional, cell-based; details: A-375, 72 h
DU-145 = test: Antiproliferative activity against human DU145 cells assessed as inhibition of cell proliferation incubated for 72 hrs by conventional ATP quantification method; type: functional, cell-based; details: DU-145, 72 h
A549 [5] = test: as §1; type: functional, cell-based; details: A549, 72 h; remark: listed apart in the source
[6] = Antiproliferative activity against human WM266.4 cells assessed as inhibition of cell proliferation incubated for 72 hrs by conventional ATP quantification method; type: functional, cell-based; details: WM 266-4, 72 h
T47D = test: Antiproliferative activity against human T47D cells assessed as inhibition of cell proliferation incubated for 72 hrs by conventional ATP quantification method; type: functional, cell-based
TK-10 = test: Antiproliferative activity against human TK10 cells assessed as inhibition of cell proliferation incubated for 72 hrs by conventional ATP quantification method; type: functional, cell-based; details: TK-10, 72 h
[7] = Antiproliferative activity against human NAMALWA cells assessed as inhibition of cell proliferation incubated for 72 hrs by conventional ATP quantification method; type: functional, cell-based; details: NAMALVA
HCT-116 [8] = test: (§2) Antiproliferative activity against human HCT116 cells assessed as inhibition of cell proliferation incubated for 72 hrs by conventional ATP quantification method; type: functional, cell-based; details: HCT-116, 72 h
[9] = Tmax in mouse at 1.5 mg/kg, ip by tandem HPLC-mass spectrometry; type: ADME, organism-based; details: in vivo
Mus musculus [10] = test: Toxicity in Swiss mouse xenografted with human A549 cells assessed as induction of body weight loss at 2.5 mg/kg, ip dosed every day for 4 consecutive days during 2 weeks (q1d4 x 2 schedule); type: organism-based; details: in vivo, 336 h
A-375 [11] = test: Toxicity against human A375 cells assessed as reduction in cell viability at 10 uM; type: cell-based; details: a-375, 10 µM
[12] = AUClast in mouse at 2.5 mg/kg, po by tandem HPLC-mass spectrometry; type: ADME, organism-based; parameters: dose 2.5 mg/kg, route oral, time 0 - last; details: in vivo
[13] = Half life in mouse at 2.5 mg/kg, po by tandem HPLC-mass spectrometry; type: ADME, organism-based; details: in vivo
PANC-1 = test: Induction of ROS generation in human PANC1 cells incubated for 1 hr by DCFH-DA dye based assay; type: functional, cell-based
[14] = Antiproliferative activity against human BxPC3 cells assessed as inhibition of cell proliferation incubated for 72 hrs by conventional ATP quantification method; type: functional, cell-based; details: BXPC-3, 72 h
[15] = AUClast in mouse at 0.5 mg/kg, iv by tandem HPLC-mass spectrometry; type: ADME, organism-based; parameters: dose 0.5 mg/kg, route intravenous, time 0 - last; details: in vivo
[16] = Oral bioavailability in mouse at 2.5 mg/kg by tandem HPLC-mass spectrometry; type: ADME, organism-based; details: in vivo
[17] = Tmax in mouse at 2.5 mg/kg, po by tandem HPLC-mass spectrometry; type: ADME, organism-based; details: in vivo
Mus musculus [18] = test: Toxicity in Swiss mouse xenografted with human A549 cells assessed as induction of hepatic toxicity at 2.5 and 5 mg/kg, ip dosed every day for 5 consecutive days during 2 weeks (q1d5 x 2 schedule); type: organism-based; details: in vivo, 336 h
HL-60 = test: Antiproliferative activity against human HL60 cells assessed as inhibition of cell proliferation incubated for 72 hrs by conventional ATP quantification method; type: functional, cell-based; details: HL-60, 72 h
HT-29 [19] = test: Cytotoxicity against human HT-29 cells incubated for 72 hrs under normoxic conditions by MTS assay; type: functional, cell-based
[20] = Toxicity in Swiss mouse xenografted with human A549 cells dosed intraperitoneally every day for 5 consecutive days during 2 weeks (q1d5 x 2 schedule); type: organism-based; details: in vivo, ip
A-375 [21] = test: Toxicity against human A375 cells assessed as membrane integrity by measuring LDH release incubated for 24 hrs; type: cell-based; details: a-375, 24 h
A549 [22] = test: Antitumor activity against human A549 cells xenografted in Swiss mouse aggressive tumor model assessed as effect on rate of tumor growth at 1 mg/kg, ip dosed every day for 5 consecutive days during 2 weeks (q1d5 x 2 schedule); type: functional, organism-based
[23] = Cmax in mouse at 2.5 mg/kg, po by tandem HPLC-mass spectrometry; type: ADME, organism-based; parameters: dose 2.5 mg/kg, route oral; details: in vivo
[24] = AUClast in mouse at 1.5 mg/kg, ip by tandem HPLC-mass spectrometry; type: ADME, organism-based; parameters: dose 1.5 mg/kg, route intraperitoneal, time 0 - last; details: in vivo
A-375 [25] = test: Inhibition of cell invasion of human A375 cells at 10 uM by Boyden chamber assay; type: functional, cell-based
[26] = Cmax in mouse at 1.5 mg/kg, ip by tandem HPLC-mass spectrometry; type: ADME, organism-based; parameters: dose 1.5 mg/kg, route intraperitoneal; details: in vivo
MDA-MB-231 [27] = test: Cytotoxicity against human MDA-MB-231 cells incubated for 72 hrs under normoxic conditions by MTS assay; type: functional, cell-based
MDA-MB-231 [28] = test: Antiproliferative activity against human MDA-MB-231 cells assessed as inhibition of cell proliferation incubated for 72 hrs by conventional ATP quantification method; type: functional, cell-based; details: MDA-MB-231, 72 h
A-375 [29] = test: Antiproliferative activity against human A375 cells assessed as inhibition of cell proliferation incubated for 24 hrs by conventional ATP quantification method; type: functional, cell-based; details: A-375, 24 h
A549 [30] = test: Antitumor activity against human A549 cells xenografted in Swiss mouse assessed as effect on median tumor volume at 1 mg/kg, ip dosed every day for 5 consecutive days during 2 weeks (q1d5 x 2 schedule); type: functional, organism-based
[31] = Antiproliferative activity against human COLO205 cells assessed as inhibition of cell proliferation incubated for 72 hrs by conventional ATP quantification method; type: functional, cell-based; details: COLO 205, 72 h
[32] = Antiproliferative activity against human KG1 cells assessed as inhibition of cell proliferation incubated for 72 hrs by conventional ATP quantification method; type: functional, cell-based; details: KG-1, 72 h
A549 [33] = test: Antitumor activity against human A549 cells xenografted in Swiss mouse assessed as reduction of subcutaneous tumor growth at 1 mg/kg, ip dosed every day for 5 consecutive days during 2 weeks (q1d5 x 2 schedule); type: functional, organism-based
A-375 [34] = test: Antiproliferative activity against human A375 cells assessed as inhibition of cell proliferation incubated for 24 hrs by conventional ATP quantification method relative to untreated control; type: functional
Mus musculus [35] = test: Toxicity in Swiss mouse xenografted with human A549 cells assessed as induction of icterus at 2.5 mg/kg, ip dosed every day for 4 consecutive days during 2 weeks (q1d4 x 2 schedule); type: organism-based; details: in vivo, 336 h
[36] = Initial plasma concentration in mouse at 0.5 mg/kg, iv by tandem HPLC-mass spectrometry; type: ADME, organism-based
[37] = Half life in mouse at 0.5 mg/kg, iv by tandem HPLC-mass spectrometry; type: ADME, organism-based; details: in vivo
Mus musculus [38] = test: Toxicity in Swiss mouse xenografted with human A549 cells assessed as induction of renal toxicity at 2.5 and 5 mg/kg, ip dosed every day for 5 consecutive days during 2 weeks (q1d5 x 2 schedule); type: organism-based; details: in vivo, 336 h
HCT-116 [39] = test: as §2; type: functional, cell-based; details: HCT-116, 72 h; remark: listed apart in the source
[40] = Half life in mouse at 1.5 mg/kg, ip by tandem HPLC-mass spectrometry; type: ADME, organism-based; details: in vivo

COc1cccc2c1C(=O)c1c(O)c3c(c(O)c1C2=O)C[C@@](O)(C(=O)CO)C[C@@H]3O[C@H]1C[C@H](N)[C@H](O)[C@H](C)O1 [DOXORUBICIN]
Activity (MDA-MB-231 [1]): inactive
IC50 (SK-OV-3): 0.02 µM
IC50 (HOP-62): 0.02 µM
IC50 (OVCAR-3): 0.02 µM
Activity (HT-29 [2]): inactive
IC50 (NCI-H460): 0.02 µM
IC50 (KM12): 0.02 µM
IC50 (A549 [3]): 0.02 µM
IC50 (A-375 [4]): 0.01 µM
IC50 (DU-145): 0.02 µM
IC50 (A549 [5]): 0.03 µM
IC50 [6]: 0.15 µM
IC50 (T47D): 0.02 µM
IC50 (TK-10): 0.02 µM

CC(C)[C@H]1CC[C@@](O)(CCl)[C@H]2C(=O)OCC(C(=O)O)=C[C@H]12 [HEPTELIDIC ACID CHLOROHYDRIN]
IC50 [7]: 0.32 µM
IC50 (A-375 [4]): 1.31 µM
IC50 (A549 [5]): 0.55 µM
IC50 [6]: 0.55 µM
IC50 (HCT-116 [8]): 0.22 µM

CC(C)[C@H]1CC[C@@]2(CO2)[C@H]2C(=O)OCC(C(=O)O)=C[C@H]12
Tmax [9]: 15 min
Activity (Mus musculus [10]): > 15%
Activity (A-375 [11]): 81%
AUC(0-t) [12]: 8.6 ng·h/mL
half-life [13]: 30 min
Activity (MDA-MB-231 [1]): Active
Activity (PANC-1): inactive
IC50 (SK-OV-3): 0.34 µM
IC50 [14]: 0.76 µM
AUC(0-t) [15]: 10.4 ng·h/mL
bioavailability [16]: 17%
Tmax [17]: 15 min
IC50 (HOP-62): 0.51 µM
Activity (Mus musculus [18]): Toxic
IC50 (HL-60): 0.76 µM
Activity (HT-29 [19]): Active
MTD at 336 h [20]: 1 mg/kg
Activity (A-375 [21]): 8%
IC50 (OVCAR-3): 0.69 µM
Activity (HT-29 [2]): Active
Activity (A549 [22]): inactive
IC50 (NCI-H460): 0.49 µM
IC50 (KM12): 0.41 µM
Cmax [23]: 17 ng/mL
IC50 [7]: 0.302 µM
AUC(0-t) [24]: 78.7 ng·h/mL
inhibition (A-375 [25]): inactive
Cmax [26]: 249 ng/mL
Activity (MDA-MB-231 [27]): Active
IC50 (A549 [3]): 0.99 µM
IC50 (MDA-MB-231 [28]): 0.45 µM
IC50 (A-375 [29]): 1.26 µM
Activity (A549 [30]): inactive
IC50 [31]: 0.63 µM
IC50 [32]: 0.4 µM
Activity (A549 [33]): inactive
IC50 (A-375 [4]): 1.34 µM
inhibition (INH) (A-375 [34]): 90%
IC50 (DU-145): 0.89 µM
Activity (Mus musculus [35]): Toxic
IC50 (A549 [5]): 0.458 µM
IC50 [6]: 0.509 µM
C0 [36]: 180 ng/mL
IC50 (T47D): 0.21 µM
IC50 (TK-10): 0.66 µM
half-life [37]: 2.4 min
IC50 (HCT-116 [8]): 0.21 µM
Activity (Mus musculus [38]): Toxic
IC50 (HCT-116 [39]): 0.93 µM
half-life [40]: 6 min

COC(=O)C1=C[C@@H]2[C@@H](C(C)C)CC[C@@]3(CO3)[C@H]2C(=O)OC1
IC50 [7]: 1.74 µM
IC50 (A-375 [4]): 4.09 µM
IC50 (A549 [5]): 0.45 µM
IC50 [6]: 4.1 µM
IC50 (HCT-116 [8]): 2.19 µM

BLEOMYCIN
Activity (PANC-1): Active

CNC(=O)C1=C[C@@H]2[C@@H](C(C)C)CC[C@@]3(CO3)[C@H]2C(=O)OC1
IC50 [7]: 1.28 µM
IC50 (A-375 [4]): 4.15 µM
IC50 (A549 [5]): 5.54 µM
IC50 [6]: 5.9 µM
IC50 (HCT-116 [8]): 7.1 µM
